SMILES strings stand for the structures.

Broadly, the melting point is the temperature, or range, at which the solid turns liquid. `O=[N+]([O-])c1cnccc1-c1ccc(Cl)cc1` registered a melting point of 74 to 76 °C. Take `O=C1COc2ccc(NCC(=O)N3CCC(Cc4ccc(F)cc4)CC3)cc2N1`: the melting point was in the range of 220 to 223 °C. With `Cc1cccc(C(=O)OC2CCN(Cc3ccccc3)CC2)c1` the figure was 45 to 46 °C; with `COc1c(N2CCCC(NC(C)=O)C2)c(F)cc2c(=O)c(C(=O)O)cn(C3CC3)c12` (stereo not drawn), 176 to 177 °C. For `O=S(=O)(CC1CCCC1)c1nc[nH]n1`, the melting point was 150 to 155 °C.

For the compound `CCCCCCCCCCCCCCCCOC(=O)C=CC(=O)NC(N)=O`, the melting point is 106 °C.

Compound `OCc1ccc(-c2ccccc2)cn1` had a melting point of 86 to 87 °C. On to `Nc1nc(OC2CCC2)c2ncn(C3CC(F)C(CO)O3)c2n1` (stereo not drawn), for which the melting point was 139 to 140 °C. Then `Nc1ccc(CN2CCN(c3ccc(F)cc3)CC2)cc1`, with 130 to 132 °C; and `CCCCCCCCCCSc1ccc(C(=O)O)cc1`, with 108 to 109 °C. With `CS(=O)(=O)c1ccc(C(=O)C2C(=O)CCC(S(C)(=O)=O)C2=O)c(Cl)c1` (stereo not drawn) the figure was 175 to 180 °C.

For the compound `CC(C)CN(C(=O)N(CCCl)N=O)C1O[C@H](CO)[C@H](O)[C@H](O)[C@H]1O` (stereo partly drawn), the melting point was in the range of 48 to 53 °C. Then `CCc1cn(C2CC(O)C(COC(c3ccccc3)(c3ccccc3)c3ccccc3)O2)c(=O)[nH]c1=O` (stereo not drawn), with 168 to 172 °C. With `O=S1(=O)NCN(C2CCCCCCC2)c2cc(Cl)ccc21` the figure was 141 to 143 °C; with `N#CCCCN1CC=C(c2ccccc2)CC1`, 57 to 59 °C; with `O=Cc1cc(C(F)(F)F)ccc1Sc1ccccc1F`, 130 to 132 °C. The compound `O=C1N(Cc2ccccc2)OCCN1c1ccc(Cl)c(Cl)c1` gave a melting point of 76 °C. Then `CCC(=O)NCC1CCC(Nc2nc3c(s2)CCOc2ccccc2-3)CC1` (stereo not drawn), with 56 to 60 °C; and `CCOCc1nc2c(N)nc3ccccc3c2n1CCCCCS(=O)(=O)NC`, with 175 to 179 °C; and `Cc1cc(CON2C(=O)c3ccccc3C2=O)on1`, with 129 to 131 °C.

The compound `O=C(O)Cn1c(=O)n(Cc2ccccc2)c2ccccc21` yielded a melting point of 200 to 202 °C. In turn, `COc1ccc(N2CCN(CCCCc3ccc(C4CCC(=O)N4)cc3)CC2)cc1` (stereo not drawn) gave a melting point of 155 to 156 °C. Then `CC(=O)OCCC1CCc2cccc3c(C4=C(c5cn(C)c6ccccc56)C(=O)OC4=O)cn1c23` (stereo not drawn), with 143 to 146 °C; and `CCCc1c(OCCCCCc2c(Cl)c(Cl)cc(OC)c2OC)ccc(C(=O)O)c1O`, with 152 to 154 °C; and `NS(=O)(=O)c1ccc(-n2ccc(C(F)F)n2)c(-c2ccc3c(c2)OCO3)c1`, with 214 to 218 °C. The compound `CCCCC(=O)Nc1c(C)c(C)c2c(c1C)C(c1ccc(C)cc1)C(C)(C)O2` (stereo not drawn) came in with a melting point of 156 to 157 °C. Then `Cc1cc2ccccc2nc1-n1cncn1`, with 80 to 81 °C. Then `CCOC(=O)N1CCC2=C(C1)SCC2(NC(=O)CN)C(=O)c1ccccc1Cl` (stereo not drawn), with 95 to 97 °C. `CC#CCOc1cc(N(C)c2cccc(F)c2F)ncn1` came in with a melting point of 77.5 °C. As for `CC(=O)NCCC1CCc2ccn3nccc3c21` (stereo not drawn), the melting point was in the range of 100 to 101 °C.

`CCSc1cccc(OC(F)(F)F)c1S(=O)(=O)NC(C)(C)C` showed a melting point of 77 °C. With `CC(=O)c1ccc2c(c1)N(C(=O)OC(C)(C)C)CCC2` the figure was 125 to 127 °C; with `CC1(C)OC(=O)Nc2ccc(-c3sccc3C#N)cc21`, 200 to 202 °C; with `Nc1ccc(Oc2ccc(C3(c4ccc(Oc5ccc(N)c(O)c5)cc4)C4CC5CC(C4)CC3C5)cc2)cc1O`, greater than 160 °C. Turning to `Cc1nc(C(=O)N2CCCC2)c2n1-c1ccc(Cl)cc1C(c1ccccc1F)=NC2`, the melting point lay within 220 to 221 °C.

`O=C(O)CCNC(=O)CNC(=O)c1csc(NC(=O)NCc2ccccc2)n1` displayed a melting point of 174 °C. `CCc1nn(CC)c(C(N)=O)c1Cc1ccc2oc(-c3ccccc3C(=O)O)c(Br)c2c1` gave a melting point of 171 to 172 °C. With `CCOC(=O)Nc1ccc2c(c1)c1c(n2Cc2cccc(F)c2)CC[C@@H](NC(=O)C(C)C)C1` the figure was 169 to 171 °C; with `COC(=O)CCCCc1cc2cc(C(F)(F)F)ccc2n1S(=O)(=O)c1cccc(C(C)(C)C)c1`, 77 °C; with `CC[C@H](C)[C@H](NC(=O)O[C@@H](CC(C)C)C(=O)OCc1ccccc1)C(=O)NC(C)C`, 90 to 92 °C.

In turn, `CC1=Nc2ccc(-c3sc(C#N)cc3C)cc2C2(CCCC2)O1` returned a melting point of 58 to 60 °C.

Compound `Nc1cccc(S(=O)(=O)Nc2ccccc2NNC=O)c1` had a melting point of 120 °C. Then `CCOC(=O)C(NC(C)=O)(C(=O)OCC)C1=Nc2ccc(Cl)cc2C(c2ccccc2F)=NC1`, with 150 to 180 °C; and `COc1ccc(S(=O)(=O)N(CC(N)=O)c2c(CCc3ccccc3)cccc2OC)cc1OC`, with 244 °C. With `CC(=O)ON1Cc2ccccc2C1=O` the figure was 69 to 71 °C. In turn, `COc1cc2c(cc1Nc1ncc(Cl)c(Nc3cc(C#N)ccc3OC)n1)CCN(CC(=O)N(C)C)CC2` registered a melting point of 86 to 105 °C. As to `CC(=O)Nc1ccc2c(c1)C(c1cccn1-c1cccc(Cl)c1)C(=O)N2` (stereo not drawn), the melting point came out at 251 °C. Then `COc1ccc(C(=S)Nc2ccccc2OC)cc1`, with 84.5 to 86.5 °C. `CCN(CC)CC(C)N1c2ccccc2Sc2ccc(C(N)=S)cc21` (stereo not drawn) yielded a melting point of 180 °C. `CS(=O)(=O)OCCn1c2ccc(O)cc2c2c3c(c(-c4ccccc4)cc21)C(=O)NC3=O` came in with a melting point of 271 to 276 °C.

In turn, `O=c1[nH]c(=O)n(Cc2ccc(Cl)cc2)c2ccccc12` gave a melting point of 217 to 218 °C. In turn, `CCOP(=O)(CN(Cc1ccncc1)C(=O)Cc1cc(C(C)(C)C)c(O)c(C(C)(C)C)c1)OCC` yielded a melting point of 160 to 162 °C.

The compound `COc1cc(NC(=O)c2ccc(-c3ccncc3)cc2)cc(N2CCN(C)CC2)c1OC` had a melting point of 219 to 221 °C. As to `Clc1ccc(-n2nc(C3CC3)cc2C2CC2)nn1`, the melting point was in the range of 102 to 105 °C. Compound `O=C1NC(c2ccccc2)(c2ccccc2)C(=O)N1CCl` showed a melting point of 161 to 162 °C. `C=CCOC(=O)Nc1ccc(N2CCN(N3C=NN(CC(C)(O)c4ccc(Cl)cc4Cl)C3)CC2)cc1` (stereo not drawn) registered a melting point of 177 to 179 °C. Then `COCCC(=O)OC1(C(=O)COC(C)=O)CCC2C3CC(C)C4=CC(=O)C=CC4(C)C3C(O)CC21C` (stereo not drawn), with 162 °C. In turn, `O=C1c2c(c(=O)n3nc(-c4ccccc4)cc3n2Cc2ccccc2)CN1C1CCCCC1` came in with a melting point of 276 to 278 °C. With `c1cnc2ncn(CCCCc3nnnn3C3CCCCC3)c2c1` the figure was 143 to 146 °C; with `CCOC(=O)C1(C2c3[nH]c4ccc(Cl)cc4c3CCN2C(=O)c2ccno2)CCC1` (stereo not drawn), 166 to 167 °C; with `COC(=O)c1ccc(C(=O)c2cccc3ccccc23)n1C`, 80 °C. `CCOC(=O)c1ncn(-c2nncs2)c1N` returned a melting point of 181 to 183 °C.

`Cc1cc(C#N)cc(C(=O)Nc2cccc(Cl)n2)n1` yielded a melting point of 222 °C. Then `COc1ccc2cc(-c3cnc(-c4cn(Cc5ccccc5)c5ccccc45)o3)ccc2c1`, with 198 to 199 °C. With `CCCCOc1c(CNC(=O)OC(C)(C)C)n(CC(C)(C)C)c(=O)c2ccc(CO)cc12` the figure was 92 to 93 °C; with `CC(=O)c1ccc(Nc2cccc(Br)c2)c([N+](=O)[O-])c1`, 142 to 144 °C. On to `CN(C)CCC1CCc2cc(OCc3ccc(O)cc3)ccc2C1` (stereo not drawn), for which the melting point lay within 132 to 135 °C. Then `O=C(Oc1ccccc1)Oc1ccccc1C(=O)NC(Oc1ccccc1)C(Cl)(Cl)Cl` (stereo not drawn), with 110 to 111 °C; and `COc1ccc2cc(C=NNC(N)=O)ccc2c1`, with 218 to 219 °C; and `O=C1C[C@@H](Nc2ncnc3c2ncn3[C@@H]2O[C@H](CO)[C@@H](O)[C@H]2O)C(=O)N1`, with 167 to 169 °C.

Consider `Nc1ccc(O)c(C(=O)CCC(=O)O)c1`, for which the melting point is 158 to 160 °C. Then `O=C(COc1cc(-c2ccsc2)nc2ccccc12)N1CCOCC1`, with 183 °C; and `CCCN1CCC(n2nc(-c3c(-c4ccccc4)nn4ccccc34)ccc2=O)CC1`, with 104 to 106 °C; and `COc1ccc(CC2SC(=O)NC2=O)c2c1N(CC(=O)O)C(=O)CC2` (stereo not drawn), with 251 to 255 °C. The compound `CC(O)=CC(N)=NC(C)(C)C` displayed a melting point of 119 to 125 °C.

Take `Cn1ncnc1COc1nn2c(-c3ccccc3F)nncc2c1-c1cccc(C(F)(F)F)c1`: the melting point lay within 152 to 155 °C. With `OC(COCCCl)c1ccc2cc(OCc3ccccc3)ccc2c1` (stereo not drawn) the figure was 86 to 87.5 °C; with `COc1cccc2c1nc(C(F)F)n2-c1nc(-c2cncnc2)cc(N2CCOCC2)n1`, 222 to 224 °C. With `CC1(C)CC(=NO)c2cc(Br)ccc21` the figure was 115 to 117 °C; with `CN1C(=O)CSc2ccc(Cl)cc21`, 119 to 121 °C; with `O=C(CCCCCNC(=O)[C@H](Cc1c[nH]c2ccccc12)NC(=O)CCCc1c[nH]c2ccccc12)NO`, 94 to 96 °C. With `CCCc1nn(-c2ccc(C(F)(F)F)cn2)cc1CCCOc1ccc(CC(=O)O)cc1OC` the figure was 121 to 122 °C; with `CSC1C(OC(C)=O)C(COC(C)=O)OC1n1ccc(=O)[nH]c1=O` (stereo not drawn), 132 °C.

The compound `O=C1O[C@H](O)[C@@H]2[C@H]1[C@@H]1C=C[C@H]2C1` registered a melting point of 133 °C.

Regarding `COc1ccc(/C=C/C(=O)Nc2ccccc2C(=O)O)cc1`, the melting point was in the range of 194 to 195 °C.

For the compound `CCSc1ccc2c(c1)CCN2C(=O)Nc1cccnc1`, the melting point is 150 to 151 °C. `O=C(C[C@H]1CCCO1)N[C@H]1CC[C@H](CCN2CCC(c3cccc4c3CCO4)CC2)CC1`: the melting point turned out to be 192 °C. Compound `CCOc1cc([C@@H](CS(C)(=O)=O)N2C(=O)c3cccc(NC(=O)COC)c3C2=O)ccc1OC` showed a melting point of 151 to 153 °C.

The values above are taken from a melting point compilation (Tetko et al.; mined from patent text by program, amines drawn as free bases though some values may be those of a salt).
